Results taken from patent US10080751B2, “Systems and methods for treating bacterial infection” (priority 2016, dated 2018).
≈ marks a conversion by molar mass, not a printed value. Where two headings read alike, the source gives them in different places.

Key:
[1] = system: S. aureus; conditions: worldwide surveillance studies; cited from earlier work
[2] = system: E. faecalis; test: MIC with/without bovine pulmonary surfactant, E. faecalis; type: cell-based, Enterococcus faecalis; conditions: for MICRZ, Resazurin: +BPS: 2.5% v/v BPS; for MICRZ, Resazurin: no BPS
Protocol: (§1) Clinical isolates were identified by the submitting laboratories and confirmed by JMI Laboratories using standard bacteriologic algorithms and methodologies, including Matrix-Assisted Laser Desorption Ionization-Time Of Flight Mass Spectrometry (MALDI-TOF MS). When necessary, MALDI-TOF MS was performed using the Bruker Daltonics MALDI Biotyper (Billerica, Mass., USA), following manufacturer's instructions. Isolates selected were bacterial species commonly associated with pneumonia. […] 2.2 Susceptibility testing
(§2) Antibacterial susceptibility testing was measured by JMI Labs (North Liberty, Iowa, USA). […] These clinical isolates were collected from US (n=4), Mexico (n=2), and Italy (n=1). Susceptibility testing was performed by broth microdilution in accordance with the Clinical and Laboratory and Standards Institute (CLSI) guidelines M07-A10 (2015) and the standard operating procedures at JMI laboratories. Minimum inhibitory concentrations (MICs) were based on CLSI criteria (2015). There are no published breakpoints for iclaprim. E. coli, K. pneumoniae, M. catarrhalis, E. faecalis, and S. aureus were tested in cation-adjusted Mueller-Hinton broth (CA-MHB). S. pneumoniae were tested in CA-MHB supplemented with 2.5-5% lysed horse blood, and H. influenza were tested in Haemophilus test medium. Quality control and interpretation of results were performed in accordance with CLSI M100-S26 (2016) methods. QC ranges for iclaprim were those approved by CLSI and published in M100-S26 (2016). Iclaprim and comparator antibiotic MIC results were within the CLSI published ranges against E. coli ATCC 25922, E. faecalis ATCC 29212, E. faecalis ATCC 33186, H. influenzae ATCC 49247, K. pneumoniae ATCC 700603 (ESBL phenotype), S. aureus ATCC 29213, and S. pneumoniae ATCC 49619. Isolates were tested with MIC panels (ThermoFisher Scientific, Cleveland, Ohio, USA) of comparator antibiotics (daptomycin and levofloxacin).
(§3) Because bovine pulmonary surfactant can introduce cloudiness to the MIC testing media, antimicrobial growth inhibition was also evaluated using the colorimetric metabolic indicator resazurin (Camlab Ltd., Cambridge, UK). […] S. pneumoniae panels were omitted from resazurin analysis because the color change was obscured by the lysed horse blood present in the test medium. Growth inhibition was then evaluated as a visible color change from blue (no growth) to pink (robust growth) and recorded as a MICRZ value.
(§4) The MICs of iclaprim, levofloxacin, and daptomycin were determined against Gram-positive and Gram-negative isolates.
(§5) A new vial of bovine pulmonary surfactant (BPS; Survanta®; Abbott Laboratories, Columbus, Ohio) was utilized for each independent experiment. Each vial was mixed thoroughly and a 100 μL aliquot was spread on an agar plate, which was incubated overnight to confirm sterility. […] The concentration of surfactant was expressed in terms of percent volume of Survanta® suspension, which consisted of phospholipid (25 mg/mL) and surfactant proteins (<1 mg/mL) in 0.9% sodium chloride solution (Goerke, 1998). MICs of daptomycin were determined in CAMHB with the Ca^2+ content adjusted to 50 mg/L.

[3] = system: nosocomial pneumonia suspected or confirmed to be caused by Gram-positive pathogens; conditions: cited from earlier work; for cure rate: intent-to-treat, test of cure visit
[4] = system: isolated rabbit Purkinje fibers
[5] = system: common Gram-positive and Gram-negative respiratory bacteria; test: Pulmonary surfactant interaction, overall effect on MIC and MICRZ; type: cell-based; conditions: 2.5% (v/v) BPS, all tested strains or isolates
Protocol: Antibacterial susceptibility testing was measured by JMI Labs (North Liberty, Iowa, USA). […] These clinical isolates were collected from US (n=4), Mexico (n=2), and Italy (n=1). Susceptibility testing was performed by broth microdilution in accordance with the Clinical and Laboratory and Standards Institute (CLSI) guidelines M07-A10 (2015) and the standard operating procedures at JMI laboratories. Minimum inhibitory concentrations (MICs) were based on CLSI criteria (2015). There are no published breakpoints for iclaprim. E. coli, K. pneumoniae, M. catarrhalis, E. faecalis, and S. aureus were tested in cation-adjusted Mueller-Hinton broth (CA-MHB). […]
Because bovine pulmonary surfactant can introduce cloudiness to the MIC testing media, antimicrobial growth inhibition was also evaluated using the colorimetric metabolic indicator resazurin (Camlab Ltd., Cambridge, UK). […] Growth inhibition was then evaluated as a visible color change from blue (no growth) to pink (robust growth) and recorded as a MICRZ value.
as §4
A new vial of bovine pulmonary surfactant (BPS; Survanta®; Abbott Laboratories, Columbus, Ohio) was utilized for each independent experiment. […] MICs of daptomycin were determined in CAMHB with the Ca^2+ content adjusted to 50 mg/L. […]

[6] = system: methicillin-resistant Staphylococcus aureus (MRSA) isolates; test: Broth microdilution MIC against MRSA nonsusceptible to daptomycin, linezolid or vancomycin; type: cell-based
Protocol: Antibacterial susceptibility testing was conducted on a range of MRSA strains and isolates with varying susceptibilities to several recognized antistaphylococcal antibiotics. Susceptibility testing was performed by broth microdilution in accordance with the Clinical and Laboratory and Standards Institute (CLSI) guidelines. Minimum inhibitory concentrations (MICs) were based on CLSI criteria.

[7] = system: S. aureus; test: MIC with/without bovine pulmonary surfactant, S. aureus; type: cell-based, Staphylococcus aureus; conditions: for MICRZ, Resazurin: +BPS: 2.5% v/v BPS; for MICRZ, Resazurin: no BPS
Protocol: as §1, §2, §3, §4, §5

[8] = system: S. pneumoniae; test: MIC with/without bovine pulmonary surfactant, S. pneumoniae; type: cell-based; conditions: Streptococcus pneumoniae
Protocol: as §1, §2, §3, §4, §5

[9] = system: H. influenzae; test: MIC with/without bovine pulmonary surfactant, H. influenzae; type: cell-based, Haemophilus influenzae; conditions: for MIC: Haemophilus influenzae
Protocol: as §1, §2, §3, §4, §5

[10] = system: K. pneumoniae; test: MIC with/without bovine pulmonary surfactant, K. pneumoniae; type: cell-based, Klebsiella pneumoniae; conditions: for MIC: Klebsiella pneumoniae
Protocol: as §1, §2, §3, §4, §5

[11] = system: M. catarrhalis; test: MIC with/without bovine pulmonary surfactant, M. catarrhalis; type: cell-based, Moraxella catarrhalis; conditions: for MICRZ, Resazurin: +BPS: 2.5% v/v BPS
Protocol: as §1, §2, §3, §4, §5

[12] = S. aureus Clinical Isolate 825189

COc1cc(Cc2cnc(N)nc2N)c2c(c1OC)OC(C1CC1)C=C2 (racemic) [Iclaprim]
MIC90 of S. aureus [1]: 0.12 µg/mL | MICRZ, Resazurin: +BPS ([2]; E. faecalis ATCC 29212): <=0.015 μg/mL | MICRZ, Resazurin ([2]; E. faecalis ATCC 29212): <=0.015 μg/mL | MICRZ, Resazurin: +BPS ([2]; E. faecalis ATCC 33186): <=0.015 μg/mL | MICRZ, Resazurin ([2]; E. faecalis ATCC 33186): 0.03 µg/mL | death rate within 28 days of the start of treatment ([3]; iclaprim q12h): 8.7% | cure rate ([3]; iclaprim 0.8 mg/kg IV q12h): 73.9% | cure rate ([3]; iclaprim 1.6 mg/kg IV q8h): 62.5% | iclaprim concentrations at which action potential duration was increased [4]: above 1 μM | effect of BPS on the MIC and MICRZ values [5]: minimal or no effect | MIC ([6]; Staphylococcus aureus, MRSA, read-out: MIC to the majority of MRSA isolates): ≤ 1 µg/mL | MIC50 ([6]; Staphylococcus aureus, 59 MRSA isolates): 0.25 µg/mL (≈ 0.705 µM) | MRSA isolates with iclaprim MIC ≤1 μg/ml ([6]; isolates nonsusceptible to linezolid (25 of 25)): 100% | isolates with reduced susceptibility, MICs >8 μg/mL ([6]; nine of 59 MRSA isolates): 15.2% | MICRZ, Resazurin: +BPS ([7]; S. aureus ATCC 29213): 0.06 µg/mL | MICRZ, Resazurin ([7]; S. aureus ATCC 29213): 0.06 µg/mL | MICRZ, Resazurin: +BPS [7, 12]: 0.12 µg/mL | MICRZ, Resazurin [7, 12]: 0.06 µg/mL | MIC ([8]; ATCC49619, S. pneumoniae ATCC 49619, 2.5% v/v BPS, read-out: MIC, CLSI: +BPS): 0.06 µg/mL (≈ 0.169 µM) | MIC ([8]; ATCC49619, S. pneumoniae ATCC 49619, no BPS, read-out: MIC, CLSI): 0.06 µg/mL (≈ 0.169 µM) | MIC ([8]; S. pneumoniae Clinical Isolate 818757, 2.5% v/v BPS, read-out: MIC, CLSI: +BPS): 0.06 µg/mL (≈ 0.169 µM) | MIC ([8]; S. pneumoniae Clinical Isolate 818757, no BPS, read-out: MIC, CLSI): 0.06 µg/mL (≈ 0.169 µM) | MIC ([8]; S. pneumoniae Clinical Isolate 825175, 2.5% v/v BPS, read-out: MIC, CLSI: +BPS): 0.12 µg/mL (≈ 0.339 µM) | MIC ([8]; S. pneumoniae Clinical Isolate 825175, no BPS, read-out: MIC, CLSI): 0.12 µg/mL (≈ 0.339 µM) | MICRZ, Resazurin: +BPS ([9]; H. influenzae ATCC 49247, 2.5% v/v BPS): 0.25 µg/mL | MICRZ, Resazurin ([9]; H. influenzae ATCC 49247, no BPS): 0.25 µg/mL | MICRZ, Resazurin: +BPS ([9]; H. influenzae Clinical Isolate 824704, 2.5% v/v BPS): 0.06 µg/mL | MICRZ, Resazurin ([9]; H. influenzae Clinical Isolate 824704, no BPS): 0.06 µg/mL | MIC ([9]; ATCC49247, H. influenzae ATCC 49247, 2.5% v/v BPS, read-out: MIC, CLSI: +BPS): 0.12 µg/mL (≈ 0.339 µM) | MIC ([9]; ATCC49247, H. influenzae ATCC 49247, no BPS, read-out: MIC, CLSI): 0.12 µg/mL (≈ 0.339 µM) | MIC ([9]; H. influenzae Clinical Isolate 824704, 2.5% v/v BPS, read-out: MIC, CLSI: +BPS): 0.06 µg/mL (≈ 0.169 µM) | MIC ([9]; H. influenzae Clinical Isolate 824704, no BPS, read-out: MIC, CLSI): 0.06 µg/mL (≈ 0.169 µM) | MICRZ, Resazurin: +BPS ([10]; K. pneumoniae ATCC 700603, 2.5% v/v BPS): 4 µg/mL | MICRZ, Resazurin ([10]; K. pneumoniae ATCC 700603, no BPS): 4 µg/mL | MICRZ, Resazurin: +BPS ([10]; K. pneumoniae Clinical Isolate 858055, 2.5% v/v BPS): 2 µg/mL | MICRZ, Resazurin ([10]; K. pneumoniae Clinical Isolate 858055, no BPS): 2 µg/mL | MIC ([10]; ATCC700603, K. pneumoniae ATCC 700603, 2.5% v/v BPS, read-out: MIC, CLSI: +BPS): 4 µg/mL (≈ 11.3 µM) | MIC ([10]; ATCC700603, K. pneumoniae ATCC 700603, no BPS, read-out: MIC, CLSI): 4 µg/mL (≈ 11.3 µM) | MIC ([10]; K. pneumoniae Clinical Isolate 858055, 2.5% v/v BPS, read-out: MIC, CLSI: +BPS): 2 µg/mL (≈ 5.64 µM) | MIC ([10]; K. pneumoniae Clinical Isolate 858055, no BPS, read-out: MIC, CLSI): 2 µg/mL (≈ 5.64 µM) | MICRZ, Resazurin: +BPS ([11]; M. catarrhalis Clinical Isolate 893806): 8 µg/mL | MICRZ, Resazurin ([11]; M. catarrhalis Clinical Isolate 893806, no BPS): 4 µg/mL | MICRZ, Resazurin: +BPS ([11]; M. catarrhalis Clinical Isolate 893807): 4 µg/mL | MICRZ, Resazurin ([11]; M. catarrhalis Clinical Isolate 893807, no BPS): 4 µg/mL | MIC ([11]; Moraxella catarrhalis, M. catarrhalis Clinical Isolate 893806, no BPS): 4 µg/mL (≈ 11.3 µM)
